Consider 20 compounds from article PMC3382598, “Functional Metagenomics Unveils a Multifunctional Glycosyl Hydrolase from the Family 43 Catalysing the Breakdown of Plant Polymers in the Calf Rumen” (PLoS ONE, 2012).

For one assay, the system named is T1, R_09-02.
T1 construct: recombinant in E. coli, His6-tag purification; tetramer approx. 200 kDa; second CDS of 3264 bp r_09 insert; W82, H301, R327 conserved residues; N-terminal GH43 domain plus C-terminal beta-sandwich (CBM6-like)
The assay can be described thus: released glucose, glucose oxidase kit; Michaelis-Menten fit. The format is biochemical. To be noted: pH 6.0 (20 mM sodium acetate), 34°C; read-out: K m (mM)^1. The text has this: released glucose, glucose oxidase kit; Michaelis-Menten fit on R_09-02
In the case of `OC[C@H]1O[C@@H](O[C@H]2[C@H](O)[C@@H](O)C(O)O[C@@H]2CO)[C@H](O)[C@@H](O)[C@H]1O` (some centres unmarked) [Lactose], the Km is 0.05 ± 0.0039 mM.

As to `OC[C@H]1O[C@H](O[C@H]2[C@H](O)[C@@H](O)[C@@H](O[C@H]3[C@H](O)[C@@H](O)[C@@H](O[C@H]4[C@H](O)[C@@H](O)[C@@H](O[C@H]5[C@H](O)[C@@H](O)C(O)O[C@@H]5CO)O[C@@H]4CO)O[C@@H]3CO)O[C@@H]2CO)[C@H](O)[C@@H](O)[C@@H]1O` (some centres unmarked) [Maltopentaose], the Km turned out to be 1.64 ± 0.21 mM.

As to `OC[C@H]1O[C@H](O[C@H]2[C@H](O)[C@@H](O)C(O)O[C@@H]2CO)[C@H](O)[C@@H](O)[C@@H]1O` (some centres unmarked) [Maltose], the Km is 2.57 ± 0.19 mM.

Turning to `OC[C@H]1O[C@H](O[C@H]2[C@H](O)[C@@H](O)[C@@H](O[C@H]3[C@H](O)[C@@H](O)[C@@H](O[C@H]4[C@H](O)[C@@H](O)C(O)O[C@@H]4CO)O[C@@H]3CO)O[C@@H]2CO)[C@H](O)[C@@H](O)[C@@H]1O` (some centres unmarked) [Maltotetraose], the Km turned out to be 0.53 ± 0.17 mM.

For `OC[C@H]1O[C@H](O[C@H]2[C@H](O)[C@@H](O)[C@@H](O[C@H]3[C@H](O)[C@@H](O)C(O)O[C@@H]3CO)O[C@@H]2CO)[C@H](O)[C@@H](O)[C@@H]1O` (some centres unmarked) [Maltotriose], the Km stood at 0.44 ± 0.13 mM.

Another assay concerns T1, R_09-02. Nature of the assay: released xylose, D-xylose assay kit; Michaelis-Menten fit. The format is biochemical. As to conditions: pH 6.0 (20 mM sodium acetate), 34°C; read-out: K m (mM)^1. The text has this:
released xylose, D-xylose assay kit; Michaelis-Menten fit on R_09-02
Take `OC1OC[C@@H](O[C@@H]2OC[C@@H](O)[C@H](O)[C@H]2O)[C@H](O)[C@H]1O` (stereo partly drawn) [1,4-β-Xylobiose]: the Km turned out to be 0.012 ± 0.002 mM.

Consider `OC1[C@H](O)CO[C@@H](O[C@@H]2CO[C@@H](O[C@@H]3CO[C@@H](O[C@@H]4CO[C@@H](O[C@@H]5COC(O)[C@H](O)[C@H]5O)[C@H](O)C4O)[C@H](O)C3O)[C@H](O)C2O)[C@@H]1O` (stereo partly drawn) [1,4-β-Xylopentaose], for which the Km was found to be 1.58 ± 0.19 mM.

On to `OC1OC[C@@H](O[C@@H]2OC[C@@H](O[C@@H]3OC[C@@H](O[C@@H]4OC[C@@H](O)[C@H](O)[C@H]4O)[C@H](O)[C@H]3O)[C@H](O)[C@H]2O)[C@H](O)[C@H]1O` (stereo partly drawn) [1,4-β-Xylotetraose], for which the Km is 0.33 ± 0.07 mM.

Turning to `OC1OC[C@@H](O[C@@H]2OC[C@@H](O[C@@H]3OC[C@@H](O)[C@H](O)[C@H]3O)[C@H](O)[C@H]2O)[C@H](O)[C@H]1O` (stereo partly drawn) [1,4-β-Xylotriose], the Km is 0.29 ± 0.02 mM.

Another assay concerns T1, R_09-02. Nature of the assay: p-nitrophenol release at […] nm; Michaelis-Menten fit. The format is biochemical. To be noted: pH 6.0 (20 mM sodium acetate), 34°C; read-out: K m (mM)^1.
With `O=[N+]([O-])c1ccc(O[C@@H]2O[C@@H](CO)[C@H](O)[C@H]2O)cc1` [pNPαAf], the Km is 0.57 ± 0.15 mM.

For `O=[N+]([O-])c1ccc(O[C@@H]2OC[C@H](O)[C@H](O)[C@H]2O)cc1` [pNPαAp], the Km was determined as 6.98 ± 0.79 mM.

For the compound `O=[N+]([O-])c1ccc(O[C@H]2O[C@H](CO)[C@@H](O)[C@H](O)[C@H]2O)cc1` [pNPαG], the Km is 4.84 ± 1.27 mM.

In the case of `O=[N+]([O-])c1ccc(O[C@H]2O[C@H](CO)[C@@H](O[C@H]3O[C@H](CO)[C@@H](O)[C@H](O)[C@H]3O)[C@H](O)[C@H]2O)cc1` [pNPαMal], the Km worked out at 9.74 ± 0.41 mM.

Consider `O=[N+]([O-])c1ccc(O[C@@H]2O[C@H](CO)[C@H](O)[C@H](O)[C@H]2O)cc1` [pNPβGal], for which the Km worked out at 0.37 ± 0.12 mM.

Consider `O=[N+]([O-])c1ccc(O[C@@H]2OC[C@@H](O)[C@H](O)[C@H]2O)cc1` [pNPβX], for which the Km amounted to 4.4 ± 0.76 mM.

The next assay has as its system T1, R_09-02. Nature of the assay: released arabinose, lactose/galactose (Rapid) assay kit; Michaelis-Menten fit. The format is biochemical. To be noted: pH 6.0 (20 mM sodium acetate), 34°C; read-out: K m (mM)^1. An excerpt:
released arabinose, lactose/galactose (Rapid) assay kit; Michaelis-Menten fit on R_09-02
Take `OC[C@@H]1O[C@@H](OC[C@@H]2OC(O)[C@H](O)[C@H]2O)[C@H](O)[C@H]1O` (stereo partly drawn) [1,5-α-L-Arabinobiose]: the Km was found to be 0.027 ± 0.01 mM.

Consider `OC[C@@H]1O[C@@H](OC[C@@H]2O[C@@H](OC[C@@H]3O[C@@H](OC[C@@H]4OC(O)[C@H](O)[C@H]4O)[C@H](O)[C@H]3O)[C@H](O)[C@H]2O)[C@H](O)[C@H]1O` (stereo partly drawn) [1,5-α-L-Arabinotetraose], for which the Km stood at 4.23 ± 0.74 mM.

In the case of `OC[C@@H]1O[C@@H](OC[C@@H]2O[C@@H](OC[C@@H]3OC(O)[C@H](O)[C@H]3O)[C@H](O)[C@H]2O)[C@H](O)[C@H]1O` (stereo partly drawn) [1,5-α-L-Arabinotriose], the Km stood at 0.1 ± 0.05 mM.

The subject of the next assay is T1, R_09-02. The assay can be described thus: oligosaccharide hydrolysis, released sugar assay; Michaelis-Menten fit. Type of assay: biochemical. As to conditions: pH 6.0 (20 mM sodium acetate), 34°C; read-out: K m (mM)^1. The text has this: oligosaccharide hydrolysis, released sugar assay; Michaelis-Menten fit on R_09-02
Consider `OC[C@H]1O[C@H](OC[C@H]2O[C@H](O[C@]3(CO)O[C@H](CO)[C@@H](O)[C@@H]3O)[C@H](O)[C@@H](O)[C@@H]2O)[C@H](O)[C@@H](O)[C@H]1O` [Raffinose], for which the Km was 0.035 ± 0.004 mM.

As for `OC[C@H]1O[C@H](OC[C@H]2O[C@H](OC[C@H]3O[C@H](O[C@]4(CO)O[C@H](CO)[C@@H](O)[C@@H]4O)[C@H](O)[C@@H](O)[C@@H]3O)[C@H](O)[C@@H](O)[C@H]2O)[C@H](O)[C@@H](O)[C@H]1O` [Stachyose], the Km was 1.43 ± 0.84 mM.
